Measurements as given in article PMC3445516 (PLoS ONE, 2012).
Where two headings read alike, the source gives them in different places.

Legend:
Assay in all cases: Ambit kinase profiling, competition binding
ACVR1 = molecular target: T1, ACVR1 (Homo sapiens, UniProt Q04771)
T1 construct: purchased Ambit Biosciences (KINOMEscan)
T1 sequence (Q04771 21-509): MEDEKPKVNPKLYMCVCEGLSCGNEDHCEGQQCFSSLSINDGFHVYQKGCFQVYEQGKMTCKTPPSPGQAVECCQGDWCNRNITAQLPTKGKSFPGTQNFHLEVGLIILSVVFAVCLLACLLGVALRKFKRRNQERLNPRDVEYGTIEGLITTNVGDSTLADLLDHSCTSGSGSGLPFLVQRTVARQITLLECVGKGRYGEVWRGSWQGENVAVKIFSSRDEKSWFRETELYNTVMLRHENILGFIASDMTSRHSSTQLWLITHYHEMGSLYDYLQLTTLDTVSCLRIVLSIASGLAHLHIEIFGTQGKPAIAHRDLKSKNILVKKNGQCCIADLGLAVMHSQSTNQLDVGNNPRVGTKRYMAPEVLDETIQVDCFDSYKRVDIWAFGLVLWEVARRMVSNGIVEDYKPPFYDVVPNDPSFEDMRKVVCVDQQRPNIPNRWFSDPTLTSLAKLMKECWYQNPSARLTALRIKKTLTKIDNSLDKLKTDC
Description: (§1) Also included in the kinase profile are four isoforms of PKC (δ, ε, η, θ) and eight isoforms of CAMKs (CAMKIα, δ, γ; CAMKIIα, β, δ, γ; CAMK4).
(§2) The global kinase profiling experiment was performed by Ambit Biosciences.

CLK4 = molecular target: T2, CLK4 (Homo sapiens, UniProt Q9HAZ1)
T2 construct: purchased Ambit Biosciences (KINOMEscan)
T2 sequence (Q9HAZ1 whole entry): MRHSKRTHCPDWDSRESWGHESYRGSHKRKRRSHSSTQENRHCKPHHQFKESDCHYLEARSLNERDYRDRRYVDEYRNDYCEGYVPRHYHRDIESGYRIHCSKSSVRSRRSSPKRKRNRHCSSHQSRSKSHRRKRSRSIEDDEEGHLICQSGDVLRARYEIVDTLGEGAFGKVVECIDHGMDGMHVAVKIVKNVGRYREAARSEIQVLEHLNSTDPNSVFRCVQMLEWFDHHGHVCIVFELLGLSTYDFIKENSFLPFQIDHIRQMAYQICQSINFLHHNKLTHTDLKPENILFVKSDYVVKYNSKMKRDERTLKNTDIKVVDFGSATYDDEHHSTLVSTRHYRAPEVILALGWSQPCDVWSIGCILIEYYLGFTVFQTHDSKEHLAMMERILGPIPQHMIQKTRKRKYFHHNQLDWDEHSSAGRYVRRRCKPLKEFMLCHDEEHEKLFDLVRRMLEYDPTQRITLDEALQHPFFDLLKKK
Description: as §1, §2

CSK = molecular target: T3, CSK (Homo sapiens, UniProt P41240); conditions: for % Competition: 10 µM
T3 construct: purchased Ambit Biosciences (KINOMEscan)
T3 sequence (P41240 whole entry): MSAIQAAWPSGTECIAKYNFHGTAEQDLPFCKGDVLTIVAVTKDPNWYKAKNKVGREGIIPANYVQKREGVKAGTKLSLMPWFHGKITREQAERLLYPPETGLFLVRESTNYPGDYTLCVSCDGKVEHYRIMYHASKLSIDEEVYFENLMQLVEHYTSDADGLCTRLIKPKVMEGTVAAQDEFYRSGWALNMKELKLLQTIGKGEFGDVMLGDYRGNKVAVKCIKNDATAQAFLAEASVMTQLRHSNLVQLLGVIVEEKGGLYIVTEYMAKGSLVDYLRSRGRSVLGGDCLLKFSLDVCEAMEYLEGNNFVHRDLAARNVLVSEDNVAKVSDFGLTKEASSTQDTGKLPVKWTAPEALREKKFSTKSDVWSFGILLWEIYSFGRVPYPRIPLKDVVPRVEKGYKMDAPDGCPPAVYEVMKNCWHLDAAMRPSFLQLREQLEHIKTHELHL
Description: as §1, §2

EPHB4 = molecular target: T4, EPHB4 (Homo sapiens, UniProt P54760)
T4 construct: purchased Ambit Biosciences (KINOMEscan)
T4 sequence (P54760 16-987): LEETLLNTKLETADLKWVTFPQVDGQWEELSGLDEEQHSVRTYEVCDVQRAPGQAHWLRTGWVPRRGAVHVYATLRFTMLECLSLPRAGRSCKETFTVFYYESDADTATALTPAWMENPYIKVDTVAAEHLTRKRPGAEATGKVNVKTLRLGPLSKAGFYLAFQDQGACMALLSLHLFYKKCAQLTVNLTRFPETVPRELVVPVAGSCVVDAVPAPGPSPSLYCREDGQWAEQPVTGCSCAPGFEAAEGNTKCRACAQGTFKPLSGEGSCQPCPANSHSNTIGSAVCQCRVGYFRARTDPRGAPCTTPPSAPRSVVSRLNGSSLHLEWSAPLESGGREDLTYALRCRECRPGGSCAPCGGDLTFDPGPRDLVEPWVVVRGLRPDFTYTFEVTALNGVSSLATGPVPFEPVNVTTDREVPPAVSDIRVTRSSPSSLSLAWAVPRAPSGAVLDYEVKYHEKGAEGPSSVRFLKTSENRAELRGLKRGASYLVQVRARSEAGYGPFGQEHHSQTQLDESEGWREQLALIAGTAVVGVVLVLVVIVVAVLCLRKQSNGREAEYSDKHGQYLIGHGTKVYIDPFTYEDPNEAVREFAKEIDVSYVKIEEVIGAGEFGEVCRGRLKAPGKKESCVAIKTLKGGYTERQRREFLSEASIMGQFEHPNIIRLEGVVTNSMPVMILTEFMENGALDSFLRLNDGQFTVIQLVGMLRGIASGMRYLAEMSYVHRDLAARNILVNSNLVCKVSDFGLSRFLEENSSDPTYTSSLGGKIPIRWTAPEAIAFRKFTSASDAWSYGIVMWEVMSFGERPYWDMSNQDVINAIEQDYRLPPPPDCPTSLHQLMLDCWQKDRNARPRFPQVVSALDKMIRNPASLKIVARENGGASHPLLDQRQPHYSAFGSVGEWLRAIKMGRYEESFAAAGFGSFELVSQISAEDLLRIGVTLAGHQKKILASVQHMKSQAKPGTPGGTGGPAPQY
Description: as §1, §2

RET = molecular target: T5, RET (Homo sapiens, UniProt P07949)
T5 construct: purchased Ambit Biosciences (KINOMEscan)
T5 sequence (P07949 29-1114): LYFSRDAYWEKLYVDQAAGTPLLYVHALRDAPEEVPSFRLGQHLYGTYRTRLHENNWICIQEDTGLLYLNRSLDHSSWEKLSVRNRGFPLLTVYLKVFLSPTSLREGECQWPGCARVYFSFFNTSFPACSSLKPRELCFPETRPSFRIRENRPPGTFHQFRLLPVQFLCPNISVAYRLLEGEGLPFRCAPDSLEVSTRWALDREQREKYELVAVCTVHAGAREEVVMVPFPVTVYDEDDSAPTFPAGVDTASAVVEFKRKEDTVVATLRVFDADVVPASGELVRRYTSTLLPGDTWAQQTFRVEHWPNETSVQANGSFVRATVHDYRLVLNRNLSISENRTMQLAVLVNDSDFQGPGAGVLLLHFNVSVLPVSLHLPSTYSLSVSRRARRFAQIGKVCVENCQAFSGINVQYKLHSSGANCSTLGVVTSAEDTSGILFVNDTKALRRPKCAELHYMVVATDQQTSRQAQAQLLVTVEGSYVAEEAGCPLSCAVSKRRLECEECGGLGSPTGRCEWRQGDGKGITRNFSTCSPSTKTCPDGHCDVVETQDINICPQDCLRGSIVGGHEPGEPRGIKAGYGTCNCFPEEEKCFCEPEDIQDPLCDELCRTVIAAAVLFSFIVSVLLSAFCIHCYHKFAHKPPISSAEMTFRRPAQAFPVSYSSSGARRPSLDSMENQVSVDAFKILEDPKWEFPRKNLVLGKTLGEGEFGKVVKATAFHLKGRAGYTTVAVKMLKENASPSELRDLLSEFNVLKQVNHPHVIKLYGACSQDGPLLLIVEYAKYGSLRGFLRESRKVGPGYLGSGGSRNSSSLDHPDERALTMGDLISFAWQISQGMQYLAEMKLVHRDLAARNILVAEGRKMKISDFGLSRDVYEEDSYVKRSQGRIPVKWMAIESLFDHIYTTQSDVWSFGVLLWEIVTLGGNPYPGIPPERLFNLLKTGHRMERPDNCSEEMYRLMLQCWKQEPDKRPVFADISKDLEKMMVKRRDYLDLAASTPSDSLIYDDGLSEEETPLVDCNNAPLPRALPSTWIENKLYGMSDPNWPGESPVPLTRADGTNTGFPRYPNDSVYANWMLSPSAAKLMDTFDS
Description: as §1, §2

RIPK2 = molecular target: T6, RIPK2 (Homo sapiens, UniProt O43353)
T6 construct: purchased Ambit Biosciences (KINOMEscan)
T6 sequence (O43353 whole entry): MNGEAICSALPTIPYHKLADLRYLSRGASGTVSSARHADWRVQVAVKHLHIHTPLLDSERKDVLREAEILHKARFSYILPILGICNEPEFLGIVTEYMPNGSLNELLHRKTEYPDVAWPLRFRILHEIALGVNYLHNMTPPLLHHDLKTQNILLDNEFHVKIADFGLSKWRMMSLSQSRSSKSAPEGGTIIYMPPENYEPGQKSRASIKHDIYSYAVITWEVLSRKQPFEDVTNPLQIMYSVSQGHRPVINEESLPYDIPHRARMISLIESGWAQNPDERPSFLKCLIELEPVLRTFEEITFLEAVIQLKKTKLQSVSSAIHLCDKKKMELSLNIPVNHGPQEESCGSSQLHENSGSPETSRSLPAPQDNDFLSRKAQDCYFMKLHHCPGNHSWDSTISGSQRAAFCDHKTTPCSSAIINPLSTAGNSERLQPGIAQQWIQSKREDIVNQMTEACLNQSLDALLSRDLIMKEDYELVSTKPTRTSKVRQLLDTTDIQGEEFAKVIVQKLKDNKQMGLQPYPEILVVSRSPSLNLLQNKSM
Description: as §1, §2

ROCK2 = molecular target: T7, ROCK2 (Homo sapiens, UniProt O75116)
T7 construct: purchased Ambit Biosciences (KINOMEscan)
T7 sequence (O75116 whole entry): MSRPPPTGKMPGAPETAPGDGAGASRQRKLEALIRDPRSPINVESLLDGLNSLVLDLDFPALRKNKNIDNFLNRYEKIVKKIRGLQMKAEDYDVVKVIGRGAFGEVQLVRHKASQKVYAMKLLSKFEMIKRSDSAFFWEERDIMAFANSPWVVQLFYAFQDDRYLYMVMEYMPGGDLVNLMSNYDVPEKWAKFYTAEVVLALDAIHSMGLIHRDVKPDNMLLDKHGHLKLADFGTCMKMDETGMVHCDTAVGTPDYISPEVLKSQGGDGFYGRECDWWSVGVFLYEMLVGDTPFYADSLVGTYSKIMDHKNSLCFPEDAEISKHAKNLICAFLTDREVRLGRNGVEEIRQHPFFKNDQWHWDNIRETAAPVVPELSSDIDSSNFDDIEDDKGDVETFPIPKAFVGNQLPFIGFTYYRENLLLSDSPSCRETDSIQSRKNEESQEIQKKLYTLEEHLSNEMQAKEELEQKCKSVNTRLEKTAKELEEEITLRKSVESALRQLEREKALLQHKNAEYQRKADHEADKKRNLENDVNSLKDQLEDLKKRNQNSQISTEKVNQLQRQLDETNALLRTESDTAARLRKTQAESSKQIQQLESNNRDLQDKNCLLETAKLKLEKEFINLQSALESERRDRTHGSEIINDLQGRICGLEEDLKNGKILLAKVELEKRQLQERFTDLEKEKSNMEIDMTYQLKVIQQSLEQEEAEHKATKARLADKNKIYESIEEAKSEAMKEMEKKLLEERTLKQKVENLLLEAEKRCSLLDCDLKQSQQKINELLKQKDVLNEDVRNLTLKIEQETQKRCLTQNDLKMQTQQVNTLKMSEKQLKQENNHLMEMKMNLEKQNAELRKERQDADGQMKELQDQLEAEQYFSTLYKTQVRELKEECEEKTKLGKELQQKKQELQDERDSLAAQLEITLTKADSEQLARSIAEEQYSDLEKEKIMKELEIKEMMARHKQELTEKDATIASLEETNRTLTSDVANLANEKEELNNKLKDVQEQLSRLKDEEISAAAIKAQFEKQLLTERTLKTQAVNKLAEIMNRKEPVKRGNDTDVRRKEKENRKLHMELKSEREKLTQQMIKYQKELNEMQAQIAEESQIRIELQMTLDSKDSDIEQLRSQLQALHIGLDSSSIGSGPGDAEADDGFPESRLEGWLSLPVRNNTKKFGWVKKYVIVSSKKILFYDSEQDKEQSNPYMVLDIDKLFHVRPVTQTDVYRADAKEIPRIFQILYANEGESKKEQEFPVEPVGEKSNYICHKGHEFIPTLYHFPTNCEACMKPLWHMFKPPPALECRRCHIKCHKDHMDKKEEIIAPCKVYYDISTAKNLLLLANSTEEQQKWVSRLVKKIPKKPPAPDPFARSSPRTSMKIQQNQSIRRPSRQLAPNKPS
Description: as §1, §2

SRC = molecular target: T8, SRC (Homo sapiens, UniProt P12931)
T8 construct: purchased Ambit Biosciences (KINOMEscan)
T8 sequence (P12931 whole entry): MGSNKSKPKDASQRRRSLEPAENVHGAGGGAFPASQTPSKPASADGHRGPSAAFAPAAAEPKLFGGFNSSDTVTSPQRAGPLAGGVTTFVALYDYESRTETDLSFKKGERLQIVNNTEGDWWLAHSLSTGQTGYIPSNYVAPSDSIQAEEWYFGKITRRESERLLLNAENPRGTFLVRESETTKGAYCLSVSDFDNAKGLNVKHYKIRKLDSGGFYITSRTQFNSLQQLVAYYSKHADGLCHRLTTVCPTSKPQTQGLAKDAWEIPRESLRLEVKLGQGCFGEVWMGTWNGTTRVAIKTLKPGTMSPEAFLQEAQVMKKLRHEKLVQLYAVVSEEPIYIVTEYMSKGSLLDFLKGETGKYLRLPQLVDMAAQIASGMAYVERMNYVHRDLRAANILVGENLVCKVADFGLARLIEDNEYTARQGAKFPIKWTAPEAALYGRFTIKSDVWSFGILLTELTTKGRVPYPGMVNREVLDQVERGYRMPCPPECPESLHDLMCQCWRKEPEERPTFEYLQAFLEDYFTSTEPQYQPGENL
Description: as §1, §2

TAOK3 = molecular target: T9, TAOK3 (Homo sapiens, UniProt Q9H2K8)
T9 construct: purchased Ambit Biosciences (KINOMEscan)
T9 sequence (Q9H2K8 1-898): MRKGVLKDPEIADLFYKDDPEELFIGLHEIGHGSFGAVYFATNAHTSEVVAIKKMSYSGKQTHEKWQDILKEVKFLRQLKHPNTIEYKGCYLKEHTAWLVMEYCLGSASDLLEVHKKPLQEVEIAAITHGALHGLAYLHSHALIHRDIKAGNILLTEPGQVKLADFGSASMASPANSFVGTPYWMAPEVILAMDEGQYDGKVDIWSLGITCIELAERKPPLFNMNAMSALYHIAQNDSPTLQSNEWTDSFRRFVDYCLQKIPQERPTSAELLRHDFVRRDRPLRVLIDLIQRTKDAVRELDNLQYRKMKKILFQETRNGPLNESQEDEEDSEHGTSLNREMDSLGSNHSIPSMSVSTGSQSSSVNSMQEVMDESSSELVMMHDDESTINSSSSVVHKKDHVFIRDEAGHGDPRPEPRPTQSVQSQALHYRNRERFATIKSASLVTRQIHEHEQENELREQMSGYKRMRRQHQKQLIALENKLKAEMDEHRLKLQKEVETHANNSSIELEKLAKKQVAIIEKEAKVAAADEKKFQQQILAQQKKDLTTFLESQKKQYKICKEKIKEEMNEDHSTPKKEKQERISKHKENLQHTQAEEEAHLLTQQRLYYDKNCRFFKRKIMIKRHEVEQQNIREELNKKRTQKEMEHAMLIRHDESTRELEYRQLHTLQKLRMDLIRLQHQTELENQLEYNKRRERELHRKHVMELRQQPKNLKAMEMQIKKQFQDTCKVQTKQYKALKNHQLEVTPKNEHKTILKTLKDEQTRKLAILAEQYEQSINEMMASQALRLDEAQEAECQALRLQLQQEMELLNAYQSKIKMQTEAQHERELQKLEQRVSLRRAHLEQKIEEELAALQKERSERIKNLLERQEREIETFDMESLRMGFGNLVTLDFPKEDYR
Description: as §1, §2

`Fc1ccc(-c2c(-c3ccncc3)[nH]c3nccnc23)cc1` [Compound 122] was tested, and the inhibition at 10 µM (ACVR1; ACVR1, 10 µM, read-out: % Competition) was 92%, the inhibition at 10 µM (CLK4; CLK4, 10 µM, read-out: % Competition) was 88% and the “% Competition” value (CSK) was 71%. It also gave an inhibition at 10 µM (EPHB4; EPHB4, 10 µM, read-out: % Competition) of 72%, an inhibition at 10 µM (RET; RET, 10 µM, read-out: % Competition) of 68% and an inhibition at 10 µM (RIPK2; RIPK2, 10 µM, read-out: % Competition) of 97%. The inhibition at 10 µM (ROCK2; ROCK2, 10 µM, read-out: % Competition) was 89%, the inhibition at 10 µM (SRC; SRC, 10 µM, read-out: % Competition) was 87% and the inhibition at 10 µM (TAOK3; TAOK3, 10 µM, read-out: % Competition) was 80%.
`CC(O)CNc1cc(-c2[nH]c3cccnc3c2-c2ccc(F)cc2)ccn1` (stereo not drawn) [Compound 140] was tested, and the inhibition at 10 µM (ACVR1; read-out: % Competition) was under 50%, the inhibition at 10 µM (CLK4; read-out: % Competition) was under 50% and the “% Competition” value (CSK) was under 50%. For the same compound, the inhibition at 10 µM (EPHB4; read-out: % Competition) was under 50%, the inhibition at 10 µM (RET; read-out: % Competition) was under 50% and the inhibition at 10 µM (RIPK2; read-out: % Competition) was 94%. The inhibition at 10 µM (ROCK2; read-out: % Competition) was under 50%, the inhibition at 10 µM (SRC; read-out: % Competition) was under 50% and the inhibition at 10 µM (TAOK3; read-out: % Competition) was under 50%.
In the case of `Fc1ccc(-c2c(-c3ccncc3)[nH]c3nccnc23)cc1` [RO1155697-000-005], the inhibition at 10 µM (ACVR1; ACVR1, compound concentration 10 uM, read-out: Percent Competition) is reported as 92%, the inhibition at 10 µM (CLK4; CLK4, compound concentration 10 uM, read-out: Percent Competition) is reported as 88% and the “Percent Competition” value (CSK; compound concentration 10 uM) is reported as 71%. The inhibition at 10 µM (EPHB4; EPHB4, compound concentration 10 uM, read-out: Percent Competition) was 72%, the inhibition at 10 µM (RET; RET, compound concentration 10 uM, read-out: Percent Competition) was 68% and the inhibition at 10 µM (RIPK2; RIPK2, compound concentration 10 uM, read-out: Percent Competition) was 97%. It also gave an inhibition at 10 µM (ROCK2; ROCK2, compound concentration 10 uM, read-out: Percent Competition) of 89%, an inhibition at 10 µM (SRC; SRC, compound concentration 10 uM, read-out: Percent Competition) of 87% and an inhibition at 10 µM (TAOK3; TAOK3, compound concentration 10 uM, read-out: Percent Competition) of 80%.
